Laboratory results from patent US7022856B2, “Carboline derivatives” (LIlly Icos LLC., priority 2001, dated 2006).

These molecules were tested against T1, human recombinant PDE5 (Homo sapiens, UniProt O76074) (assay: cGMP-PDE inhibition, one-step assay with human recombinant PDE5). Conditions: 0.15 μM 8-[H3]-cGMP, 30 min.
T1 construct: host or cells: Saccharomyces cerevisiae strain BJ2-54 (ATCC 74465)
Format: biochemical
Protocol: The compounds of structural formula (I) were tested for an ability to inhibit PDE5. The ability of a compound to inhibit PDE5 activity is related to the IC50 value for the compound, i.e., the concentration of inhibitor required for 50% inhibition of enzyme activity. The IC50 value for compounds pounds of structural formula (I) were determined using recombinant human PDE5.
Recombinant production of human PDE1B, PDE2, PDE4A, PDE4B, PDE4C, PDE4D, PDE5, and PDE7 was carried out similarly to that described in Example 7 of U.S. Pat. No. 5,702,936, incorporated herein by reference, except that the yeast transformation vector employed, which is derived from the basic ADH2 plasmid described in Price et al., Methods in Enzymology, 185, pp. 308–318 (1990), incorporated yeast ADH2 promoter and terminator sequences and the Saccharomyces cerevisiae host was the protease-deficient strain BJ2-54 deposited on Aug. 31, 1998 with the American Type Culture Collection, Manassas, Va., under accession number ATCC 74465. Transformed host cells were grown in 2×SC-leu medium, pH 6.2, with trace metals, and vitamins. After 24 hours, YEP medium-containing glycerol was added to a final concentration of 2×YET/3% glycerol. Approxiately 24 hr later, cells were harvested, washed, and stored at −70° C. […]
Cell pellets (29 g) were thawed on ice with an equal volume of Lysis Buffer (25 mM Tris HCl, pH 8, 5 mM MgCl2, 0.25 mM DTT, 1 mM benzamidine, and 10 μM ZnSO4). Cells were lysed in a Microfluidizer® (Microfluidics Corp.) using nitrogen at 20,000 psi. The lysate was centrifuged and filtered through 0.45 μm disposable filters. The filtrate was applied to a 150 mL column of Q SEPHAROSE® Fast-Flow (Pharmacia). The column was washed with 1.5 volumes of Buffer A (20 mM Bis-Tris Propane, pH 6.8, 1 mM MgCl2, 0.25 mM DTT, 10 μM ZnSO4) and eluted with a step gradient of 125 mM NaCl in Buffer A followed by a linear gradient of 125–1000 mM NaCl in Buffer A. Active fractions from the linear gradient were applied to a 180 mL hydroxyapatite column in Buffer B (20 mM Bis-Tris Propane (pH 6.8), 1 mM MgCl2, 0.25 mM DTT, 10 μM ZnSO4, and 250 mM KCl). After loading, the column was washed with 2 volumes of Buffer B and eluted with a linear gradient of 0–125 mM potassium phosphate in Buffer B. Active fractions were pooled, precipitated with 60% ammonium sulfate, and resuspended in Buffer C (20 mM Bis-Tris Propane, pH 6.8, 125 mM NaCl, 0.5 mM DTT, and 10 μM ZnSO4). The pool was applied to a 140 mL column of SEPHACRYL® S-300 HR and eluted with Buffer C. Active fractions were diluted to 50% glycerol and stored at −20° C.
cGMP-PDE activity of compounds of the present invention was measured using a one-step assay adapted from Wells et al., Biochim. Biophys. Acta, 384, 430 (1975). The reaction medium contained 50 mM Tris-HCl, pH 7.5, 5 mM magnesium acetate. 250 μg/ml 5′-Nucleotidase, 1 mM EGTA, and 0.15 μM 8-[H^3]-cGMP. Unless otherwise indicated, the enzyme used was a human recombinant PDE5 (ICOS Corp., Bothell, Wash.).
Compounds of the invention were dissolved in DMSO finally present at 2% in the assay.

Row | Structure (SMILES) | IC50
1 | CNc1ccc(C(=O)N2CCc3c([nH]c4ccccc34)C2c2ccc3c(c2)OCO3)cc1 (stereo not drawn) [Example 5, 1-(1-Benzo[1,3]dioxol-5-yl-1,3,4,9-tetrahydro-β-carbolin-2-yl)-1-(4-methylaminophenyl)methanone] | 200 nM
2 | CN(C)c1ccc(C(=O)N2CCc3c([nH]c4ccccc34)C2c2ccc3c(c2)OCO3)cc1 (stereo not drawn) [Example 6, 1-(1-Benzo[1,3]dioxol-5-yl-1,3,4,9-tetrahydro-β-carbolin-2-yl)-1-(4-dimethylaminophenyl)methanone] | 670 nM
3 | NC(=O)c1ccc(C(=O)N2CCc3c([nH]c4ccccc34)C2c2ccc3c(c2)OCO3)cc1 (stereo not drawn) [Example 7, 4-[1-(1-Benzo[1,3]dioxol-5-yl-1,3,4,9-tetrahydro-β-carbolin-2-yl)methanoyl]benzamide] | 550 nM
4 | O=C(C#Cc1ccccc1)N1CCc2c([nH]c3ccccc23)C1c1ccc2c(c1)OCO2 (stereo not drawn) [Example 8, 1-(1-Benzo[1,3]dioxol-5-yl-1,3,4,9-tetrahydro-β-carbolin-2-yl)-3-phenylpropynone] | 190 nM
5 | Nc1ccccc1CCC(=O)N1CCc2c([nH]c3ccccc23)C1c1ccc2c(c1)OCO2 (stereo not drawn) [Example 9, 3-(2-Aminophenyl)-1-(1-benzo[1,3]dioxol-5-yl-1,3,4,9-tetrahydro-β-carbolin-2-yl)propan-1-one] | 440 nM
6 | O=C(Cc1ccccc1)Nc1ccc(C(=O)N2CCc3c([nH]c4ccccc34)C2c2ccc3c(c2)OCO3)cc1 (stereo not drawn) [Example 10, N-{4-[1-(1-Benzo[1,3]dioxol-5-yl-1,3,4,9-tetrahydro-β-carbolin-2-yl)methanoyl]phenyl}-2-phenylacetamide] | 760 nM
7 | O=C(CCc1ccccc1)N1CCc2c([nH]c3ccccc23)C1c1ccc2c(c1)OCO2 (stereo not drawn) [Example 11, 1-(1-Benzo[1,3]dioxol-5-yl-1,3,4,9-tetrahydro-β-carbolin-2-yl)-3-phenylpropan-1-one] | 440 nM
8 | O=C(/C=C/c1cccc(CCC(=O)N2CCc3c([nH]c4ccccc34)C2c2ccc3c(c2)OCO3)c1)N1CCc2c([nH]c3ccccc23)C1c1ccc2c(c1)OCO2 (centres unmarked) [Example 13a] | 480 nM
9 | O=C(/C=C/c1ccc(CCC(=O)N2CCc3c([nH]c4ccccc34)C2c2ccc3c(c2)OCO3)cc1)N1CCc2c([nH]c3ccccc23)C1c1ccc2c(c1)OCO2 (centres unmarked) [Example 13b] | 20 nM
10 | O=C(c1ccc(-c2cccnc2)s1)N1CCc2c([nH]c3ccccc23)C1c1ccc2c(c1)OCO2 (centres unmarked) [Example 18] | 110 nM
11 | O=C(c1ccc(-c2ccccc2)s1)N1CCc2c([nH]c3ccccc23)C1c1ccc2c(c1)OCO2 (centres unmarked) [Example 19] | 250 nM
12 | COc1ccc(C2c3[nH]c4ccccc4c3CCN2C(=O)c2cc3ccccc3s2)cc1Cl (centres unmarked) [Example 20] | 420 nM
13 | O=C(c1cc2cc([N+](=O)[O-])ccc2s1)N1CCc2c([nH]c3ccccc23)C1c1ccc2c(c1)OCO2 (centres unmarked) [Example 21] | 130 nM
14 | Nc1ccc2sc(C(=O)N3CCc4c([nH]c5ccccc45)C3c3ccc4c(c3)OCO4)cc2c1 (centres unmarked) [Example 22] | 80 nM
15 | O=C(Cc1csc2ccccc12)N1CCc2c([nH]c3ccccc23)C1c1ccc2c(c1)OCO2 (stereo not drawn) [Example 23, 2-Benzo[b]thiophen-3-yl-1-(1-benzo[1,3]dioxol-5-yl-1,3,4,9-tetrahydro-β-carbolin-2-yl)ethanone] | 360 nM
16 | CC(=O)Nc1ccc2sc(C(=O)N3CCc4c([nH]c5ccccc45)C3c3ccc4c(c3)OCO4)cc2c1 (centres unmarked) [Example 24] | 30 nM
17 | O=C(CCl)Nc1ccc2sc(C(=O)N3CCc4c([nH]c5ccccc45)C3c3ccc4c(c3)OCO4)cc2c1 (centres unmarked) [Example 25] | 40 nM
18 | O=C(c1ccsc1)N1CCc2c([nH]c3ccccc23)C1c1ccc2c(c1)OCO2 (centres unmarked) [Example 26] | 900 nM
19 | O=C(CN1CCOCC1)Nc1ccc2sc(C(=O)N3CCc4c([nH]c5ccccc45)C3c3ccc4c(c3)OCO4)cc2c1 (centres unmarked) [Example 27] | 40 nM
20 | CN1CCN(CC(=O)Nc2ccc3sc(C(=O)N4CCc5c([nH]c6ccccc56)C4c4ccc5c(c4)OCO5)cc3c2)CC1 (centres unmarked) [Example 28] | 120 nM
21 | O=C(CN1CCCCC1)Nc1ccc2sc(C(=O)N3CCc4c([nH]c5ccccc45)C3c3ccc4c(c3)OCO4)cc2c1 (centres unmarked) [Example 29] | 300 nM
22 | COC(=O)CC(=O)Nc1ccc2sc(C(=O)N3CCc4c([nH]c5ccccc45)C3c3ccc4c(c3)OCO4)cc2c1 (centres unmarked) [Example 30] | 60 nM

Row | Structure (SMILES) | IC50
23 | O=C(Cn1ccnc1)Nc1ccc2sc(C(=O)N3CCc4c([nH]c5ccccc45)C3c3ccc4c(c3)OCO4)cc2c1 (centres unmarked) [Example 31] | 40 nM
24 | O=C(c1cc2cccc(Br)c2s1)N1CCc2c([nH]c3ccccc23)C1c1ccc2c(c1)OCO2 (centres unmarked) [Example 32] | 480 nM
25 | O=C(c1cc2c([N+](=O)[O-])cccc2s1)N1CCc2c([nH]c3ccccc23)C1c1ccc2c(c1)OCO2 (centres unmarked) [Example 33] | 200 nM
26 | O=C(c1ccc([N+](=O)[O-])s1)N1CCc2c([nH]c3ccccc23)C1c1ccc2c(c1)OCO2 (centres unmarked) [Example 34] | 460 nM
27 | O=C(c1cc2c(Br)cccc2s1)N1CCc2c([nH]c3ccccc23)C1c1ccc2c(c1)OCO2 (centres unmarked) [Example 35] | 410 nM
28 | CC(=O)c1ccc(C(=O)N2CCc3c([nH]c4ccccc34)C2c2ccc3c(c2)OCO3)s1 (centres unmarked) [Example 36] | 110 nM
29 | COc1ccc2cc(C(=O)N3CCc4c([nH]c5ccccc45)C3c3ccc4c(c3)OCO4)sc2c1 (centres unmarked) [Example 37] | 40 nM
30 | COc1ccc2sc(C(=O)N3CCc4c([nH]c5ccccc45)C3c3ccc4c(c3)OCO4)cc2c1 (centres unmarked) [Example 38] | 30 nM
31 | O=C(c1ccc(CN2CCOCC2)s1)N1CCc2c([nH]c3ccccc23)C1c1ccc2c(c1)OCO2 (centres unmarked) [Example 39] | 400 nM
32 | COCc1ccc(C(=O)N2CCc3c([nH]c4ccccc34)C2c2ccc3c(c2)OCO3)s1 (centres unmarked) [Example 40] | 320 nM
33 | CN(C)CC(=O)Nc1ccc(C(=O)N2CCc3c([nH]c4ccccc34)C2c2ccc3c(c2)OCO3)o1 (centres unmarked) [Example 41] | 240 nM
34 | CN(C)Cc1ccc(C(=O)N2CCc3c([nH]c4ccccc34)C2c2ccc3c(c2)OCO3)s1 (centres unmarked) [Example 42] | 850 nM
35 | CN(C)Cc1ccc2sc(C(=O)N3CCc4c([nH]c5ccccc45)C3c3ccc4c(c3)OCO4)cc2c1 (centres unmarked) [Example 43] | 290 nM
36 | Nc1ccc(C(=O)N2CCc3c([nH]c4ccccc34)C2c2ccc3c(c2)OCO3)s1 (centres unmarked) [Example 44] | 490 nM
37 | COc1cc2nc(N3CCc4c([nH]c5ccccc45)C3c3ccc4c(c3)OCO4)[nH]c(=O)c2cc1OC (stereo not drawn) [Example 46, 2-(1-Benzo[1,3]dioxol-5-yl-1,3,4,9-tetrahydro-β-carbolin-2-yl) -6,7-dimethoxy-3H-quinazolin-4-one] | 5 nM
38 | COc1cc2nc(N3CCc4c([nH]c5ccccc45)C3c3ccc4c(c3)OCO4)nc(Cl)c2cc1OC (stereo not drawn) [Example 47a, 1-Benzo[1,3]dioxol-5-yl-2-(4-chloro-6,7-dimethoxyquinazolin-2-yl)-2,3,4,9-tetrahydro-1H-β-carboline] | 27 nM
39 | COc1cc2cnc(N3CCc4c([nH]c5ccccc45)C3c3ccc4c(c3)OCO4)nc2cc1OC (stereo not drawn) [Example 47b, 1-Benzo[1,3]dioxol-5-yl-2-(6,7-dimethoxyquinazolin-2-yl)-2,3,4,9-tetrahydro-1H-β-carboline] | 5 nM
40 | O=C(O)CC(=O)Nc1ccc2sc(N3CCc4c([nH]c5ccccc45)C3c3ccc4c(c3)OCO4)cc2c1 (centres unmarked) [Example 48] | 20 nM
41 | COc1ccc(-c2ccnc(N3CCc4c([nH]c5ccccc45)C3c3ccc4c(c3)OCO4)n2)cc1 (centres unmarked) [Example 49] | 10 nM
42 | c1cnc(N2CCc3c([nH]c4ccccc34)C2c2ccc3c(c2)OCO3)nc1 (centres unmarked) [Example 50] | 780 nM
43 | c1ccc(-c2ccnc(N3CCc4c([nH]c5ccccc45)C3c3ccc4c(c3)OCO4)n2)cc1 (centres unmarked) [Example 51] | 30 nM
44 | c1ccc(-c2ccnc(N3CCc4c([nH]c5ccccc45)C3c3ccccc3)n2)cc1 (centres unmarked) [Example 52] | 290 nM
